Data: patent US20090048112A1, “Novel Herbicides” (SYNGENTA LIMITED, priority 2005, published 2009)

Columns and labels:
Type in all cases: in vivo
[1] = tested on: Monocotyledonous and dicotyledonous test plants; experiment: Example B1: herbicidal action prior to emergence (pre-emergence), 500 g/ha; details: 13 days after application, 0 = no damage, 100 = plants completely dead; for ALOMY herbicidal effect (visual assessment, percentage scale): Alopecurus myosuroides (slender foxtail); for AMARE herbicidal effect (visual assessment, percentage scale): Amaranthus retroflexus (redroot pigweed); for ECHCG herbicidal effect (visual assessment, percentage scale): Echinochloa crus-galli (barnyard grass); for STEME herbicidal effect (visual assessment, percentage scale): Stellaria media (chickweed)
Method: (§1) Monocotyledonous and dicotyledonous test plants were sown in seed trays in standard compost. The trays were watered twice daily or as required. The chemicals were applied by track sprayer at the soil surface. The application was carried out with an aqueous suspension of the test substances, prepared as a formulation of 50% acetone in water with 0.5% Tween 20™ (CAS RN 9005-64-5), to achieve a field equivalent of 1000 l/ha. The application rate of the test substances was 500 g/ha. A visual assessment of the herbicidal effect was made at 13 days after application. The following percentage scale was used for assessment: 0, 5, 10, 20, 30, 40, 50, 60, 70, 80, 90, 95, 100 (where 0 is no damage to plants and 100 is plants are completely dead).

[2] = tested on: Alopecurus myosuroides (slender foxtail); experiment: Example B2: herbicidal action post emergence, 500 g/ha; details: applied to the foliage, 13 days after application, 0 is no damage to plants, 100 is plants completely dead
Method: as §1, with “standard compost and were grown for eight days.” for “standard compost.”, “sprayer to” for “sprayer at”, “the foliage.” for “the soil surface.”, “(where O” for “(where 0”

[3] = tested on: Stellaria media (chickweed); experiment: as above; details: applied to the foliage, 13 days after application, 0 is no damage to plants, 100 is plants completely dead
Method: as §1, with “standard compost and were grown for eight days.” for “standard compost.”, “sprayer to” for “sprayer at”, “the foliage.” for “the soil surface.”, “(where O” for “(where 0”

[4] = tested on: Echinochloa crus-galli (barnyard grass); experiment: as above; details: applied to the foliage, 13 days after application, 0 is no damage to plants, 100 is plants completely dead
Method: as §1, with “standard compost and were grown for eight days.” for “standard compost.”, “sprayer to” for “sprayer at”, “the foliage.” for “the soil surface.”, “(where O” for “(where 0”

[5] = tested on: Amaranthus retroflexus (redroot pigweed); experiment: as above; details: applied to the foliage, 13 days after application, 0 is no damage to plants, 100 is plants completely dead
Method: as §1, with “standard compost and were grown for eight days.” for “standard compost.”, “sprayer to” for “sprayer at”, “the foliage.” for “the soil surface.”, “(where O” for “(where 0”

[6] = tested on: Monocotyledonous and dicotyledonous test plants; experiment: Example B3: herbicidal action prior to emergence (pre-emergence), 96-cell seed trays, 1000 g/ha; set-up: key: 0 is no damage to plant; 5 is total damage to plant; details: 9 days after application; for AGSTE herbicidal effect (visual assessment, scale 0-5): Agrostis tenius (Colonial bentgrass); for AMARE herbicidal effect (visual assessment, scale 0-5): Amaranthus retroflexus (redroot pigweed); for DIGSA herbicidal effect (visual assessment, scale 0-5): Digitaria sanguinalis (hairy finger-grass); for POATR herbicidal effect (visual assessment, scale 0-5): Poa trivialis (rough blue grass); for SETIT herbicidal effect (visual assessment, scale 0-5): Setaria italica (foxtail millet)
Method: Monocotyledonous and dicotyledonous test plants were sown in sterilised standard soil in seed trays each with 96 cells. The seed trays were stored under controlled conditions in a climatic chamber for one day (cultivation at 23° C. during the day and 17° C. at night; 13 hours of light; 50-60% humidity). The chemicals were applied to the soil surface. The application was carried out with an aqueous suspension of the test substances, prepared as a formulation in water with 10% dimethyl sulfoxide (CAS RN 67-68-5), to achieve a field equivalent of 1000 l/ha. The application rate of the test substances was 1000 g/ha. The plants were grown on in the climatic chamber for 9 days (cultivation at 24° C. during the day and 19° C. at night; 13 hours of light; 50-60% humidity). A visual assessment of the herbicidal effect was made at 9 days after application. The following scale was used for assessment: 0, 1, 2, 3, 4 and 5 (where 0 is no damage to plant and 5 is total damage to plant).

| SMILES | ALOMY herbicidal effect (visual assessment, percentage scale) [1] | AMARE herbicidal effect (visual assessment, percentage scale) [1] | ECHCG herbicidal effect (visual assessment, percentage scale) [1] | STEME herbicidal effect (visual assessment, percentage scale) [1] | ALOMY, visual assessment of the herbicidal effect [2] | STEME, visual assessment of the herbicidal effect [3] | ECHCG, visual assessment of the herbicidal effect [4] | AMARE, visual assessment of the herbicidal effect [5] | AGSTE herbicidal effect (visual assessment, scale 0-5) [6] | AMARE herbicidal effect (visual assessment, scale 0-5) [6] | DIGSA herbicidal effect (visual assessment, scale 0-5) [6] | POATR herbicidal effect (visual assessment, scale 0-5) [6] | SETIT herbicidal effect (visual assessment, scale 0-5) [6] |
| --- | --- | --- | --- | --- | --- | --- | --- | --- | --- | --- | --- | --- | --- |
| Cn1nc(C(F)(F)F)c(C[S+]([O-])c2ncc(Br)s2)c1Cl (racemic) [1.005] | 95% | 100% | 95% | 60% | 80% | 70% | 80% | 80% |  |  |  |  |  |
| Cn1nc(C(F)(F)F)c(C[S+]([O-])c2ncc(Cl)s2)c1OCC(F)(F)F (racemic) [1.014] | 100% | 100% | 95% | 95% | 70% | 80% | 60% | 70% |  |  |  |  |  |
| Cn1nc(C(F)(F)F)c(C[S+]([O-])c2ncc(Cl)s2)c1Cl (racemic) [1.017] | 95% | 95% | 95% | 95% | 70% | 70% | 60% | 70% |  |  |  |  |  |
| CCOc1c(C[S+]([O-])c2ncc(Br)s2)c(C(F)(F)F)nn1C (racemic) [1.022] | 95% | 100% | 95% | 90% | 60% | 80% | 80% | 70% |  |  |  |  |  |
| Cn1nc(C(F)(F)F)c(C[S+]([O-])c2ncc(Br)s2)c1OCC(F)F (racemic) [1.025] | 95% | 100% | 95% | 90% | 70% | 90% | 80% | 80% |  |  |  |  |  |
| COCCOc1c(C[S+]([O-])c2ncc(Cl)s2)c(C(F)(F)F)nn1C (racemic) [1.051] | 80% | 100% | 70% | 100% | 70% | 70% | 80% | 70% |  |  |  |  |  |
| Cn1nc(C(F)(F)F)c(C[S+]([O-])c2ncc(Cl)s2)c1OC(F)F (racemic) [1.057] | 90% | 95% | 95% | 80% | 90% | 90% | 80% | 100% |  |  |  |  |  |
| Cc1cnc([S+]([O-])Cc2c(C(F)(F)F)nn(C)c2OCC(F)(F)F)s1 (racemic) [Compound 1.074] | 70% | 95% | 0% | 80% |  |  |  |  | 5 | 3 | 5 | 5 | 4 |
| CCOc1c(CS(=O)(=O)c2ncc(Br)s2)c(C(F)(F)F)nn1C [1.023] | 50% | 100% | 90% | 30% | 70% | 20% | 80% | 80% |  |  |  |  |  |
| Cn1nc(C(F)(F)F)c(CS(=O)(=O)c2ncc(Br)s2)c1OCC(F)F [1.026] | 60% | 90% | 95% | 0% | 70% | 0% | 70% | 60% |  |  |  |  |  |
| COCCOc1c(CS(=O)(=O)c2ncc(Cl)s2)c(C(F)(F)F)nn1C [1.052] | 80% | 100% | 95% | 90% | 80% | 10% | 70% | 50% |  |  |  |  |  |
| Cn1nc(C(F)(F)F)c(CS(=O)(=O)c2ncc(Cl)s2)c1OC(F)F [1.058] | 30% | 100% | 95% | 10% | 60% | 0% | 70% | 80% |  |  |  |  |  |
| Cn1nc(OC(F)F)c(CS(=O)(=O)c2ncc(Cl)s2)c1C(F)(F)F [Compound 1.055] | 95% | 0% | 100% | 0% |  |  |  |  | 4 | 2 | 5 | 5 | 5 |
| Cn1nc(C(F)(F)F)c(CSc2ncc(Br)s2)c1OCC(F)(F)F [Compound No. 1.001, 5-bromo-2-[1-methyl-5-(2,2,2-trifluoroethoxy)-3-trifluoromethyl-1H-pyrazol-4-ylmethylsulfanyl]-thiazole] | 90% | 90% | 95% | 60% | 80% | 80% | 60% | 80% |  |  |  |  |  |
| Cn1nc(C(F)(F)F)c(CS(=O)(=O)c2ncc(Br)s2)c1OCC(F)(F)F [Compound No. 1.003, 5-bromo-2-[1-methyl-5-(2,2,2-trifluoroethoxy)-3-trifluoromethyl-1H-pyrazol-4-ylmethanesulfonyl]-thiazole] | 95% | 95% | 95% | 70% | 80% | 10% | 90% |  |  |  |  |  |  |
